# Assay results as given in ChEMBL document CHEMBL3785084, “Rational modification of the lead molecule: Enhancement in the anticancer and dihydrofolate reductase inhibitory activity” (Bioorg Med Chem Lett, 2016).
# Key:
# cells [1] = conditions: Homo sapiens, RPMI-8226, 48 h
# Description: Cytotoxicity against human RPMI8226 cells after 48 hrs by sulforhodamine B assay
# KM12 = test: cells; conditions: Homo sapiens, KM12, 48 h
# Description: Cytotoxicity against human KM12 cells after 48 hrs by sulforhodamine B assay
# SN12C = test: cells; conditions: Homo sapiens, 48 h
# Description: Cytotoxicity against human SN12C cells after 48 hrs by sulforhodamine B assay
# EKVX = test: cells; conditions: Homo sapiens, 48 h
# Description: Cytotoxicity against human EKVX cells after 48 hrs by sulforhodamine B assay
# cells [2] = conditions: Homo sapiens, CAKI-1, 48 h
# Description: Cytotoxicity against human Caki1 cells after 48 hrs by sulforhodamine B assay
# cells [3] = conditions: Homo sapiens, MOLT-4, 48 h
# Description: Cytotoxicity against human MOLT4 cells after 48 hrs by sulforhodamine B assay
# cells [4] = conditions: Homo sapiens, HOP-92, 48 h
# Description: Cytotoxicity against human HOP92 cells after 48 hrs by sulforhodamine B assay
# SR = test: Cytotoxicity against human SR cells after 48 hrs by sulforhodamine B assay; assay type: functional
# SK-MEL-5 = test: cells; conditions: Homo sapiens, SK-MEL-5, 48 h
# Description: Cytotoxicity against human SK-MEL-5 cells after 48 hrs by sulforhodamine B assay
# cells [5] = conditions: Homo sapiens, HCT-116, 48 h
# Description: Cytotoxicity against human HCT116 cells after 48 hrs by sulforhodamine B assay
# cells [6] = conditions: Homo sapiens, OVCAR-8, 48 h
# Description: Cytotoxicity against human OVCAR8 cells after 48 hrs by sulforhodamine B assay
# cells [7] = conditions: Homo sapiens, OVCAR-3, 48 h
# Description: Cytotoxicity against human OVCAR3 cells after 48 hrs by sulforhodamine B assay
# cells [8] = conditions: Homo sapiens, UACC-257, 48 h
# Description: Cytotoxicity against human UACC257 cells after 48 hrs by sulforhodamine B assay
# cells [9] = conditions: Homo sapiens, LOX IMVI, 48 h
# Description: Cytotoxicity against human LOXIMVI cells after 48 hrs by sulforhodamine B assay
# MDA-MB-435 = test: cells; conditions: Homo sapiens, MDA-MB-435, 48 h
# Description: Cytotoxicity against human MDA-MB-435 cells after 48 hrs by sulforhodamine B assay
# cells [10] = conditions: Homo sapiens, OVCAR-4, 48 h
# Description: Cytotoxicity against human OVCAR4 cells after 48 hrs by sulforhodamine B assay
# cells [11] = conditions: Homo sapiens, SK-OV-3, 48 h
# Description: Cytotoxicity against human SKOV3 cells after 48 hrs by sulforhodamine B assay
# NCI-H460 = test: cells; conditions: Homo sapiens, NCI-H460, 48 h
# Description: Cytotoxicity against human NCI-H460 cells after 48 hrs by sulforhodamine B assay
# cells [12] = conditions: Homo sapiens, DU-145, 48 h
# Description: Cytotoxicity against human DU145 cells after 48 hrs by sulforhodamine B assay
# A549 = test: cells; conditions: Homo sapiens, A549, 48 h
# Description: Cytotoxicity against human A549 cells after 48 hrs by sulforhodamine B assay
# cells [13] = conditions: Homo sapiens, HCC 2998, 48 h
# Description: Cytotoxicity against human HCC2998 cells after 48 hrs by sulforhodamine B assay
# 786-0 = test: cells; conditions: Homo sapiens, 786-0, 48 h
# Description: Cytotoxicity against human 786-0 cells after 48 hrs by sulforhodamine B assay
# [14] = Cytotoxicity against human Hs 578T cells after 48 hrs by sulforhodamine B assay; assay type: functional
# M14 = test: cells; conditions: Homo sapiens, M14, 48 h
# Description: Cytotoxicity against human M14 cells after 48 hrs by sulforhodamine B assay
# cells [15] = conditions: Homo sapiens, UACC-62, 48 h
# Description: Cytotoxicity against human UACC62 cells after 48 hrs by sulforhodamine B assay
# cells [16] = conditions: Homo sapiens, UO-31, 48 h
# Description: Cytotoxicity against human UO31 cells after 48 hrs by sulforhodamine B assay
# cells [17] = conditions: Homo sapiens, RXF 393, 48 h
# Description: Cytotoxicity against human RXF393 cells after 48 hrs by sulforhodamine B assay
# Malme-3M = test: cells; conditions: Homo sapiens, 48 h
# Description: Cytotoxicity against human MALME-3M cells after 48 hrs by sulforhodamine B assay
# cells [18] = conditions: Homo sapiens, SF-268, 48 h
# Description: Cytotoxicity against human SF268 cells after 48 hrs by sulforhodamine B assay
# CCRF-CEM = test: cells; conditions: Homo sapiens, 48 h
# Description: Cytotoxicity against human CCRF-CEM cells after 48 hrs by sulforhodamine B assay
# T47D = test: cells; conditions: Homo sapiens, 48 h
# Description: Cytotoxicity against human T47D cells after 48 hrs by sulforhodamine B assay
# NCI-H522 = test: cells; conditions: Homo sapiens, NCI-H522, 48 h
# Description: Cytotoxicity against human NCI-H522 cells after 48 hrs by sulforhodamine B assay
# HT-29 = test: cells; conditions: Homo sapiens, HT-29, 48 h
# Description: Cytotoxicity against human HT-29 cells after 48 hrs by sulforhodamine B assay
# SK-MEL-28 = test: cells; conditions: Homo sapiens, SK-MEL-28, 48 h
# Description: Cytotoxicity against human SK-MEL-28 cells after 48 hrs by sulforhodamine B assay
# A498 = test: cells; conditions: Homo sapiens, A498, 48 h
# Description: Cytotoxicity against human A498 cells after 48 hrs by sulforhodamine B assay
# cells [19] = conditions: Homo sapiens, TK-10, 48 h
# Description: Cytotoxicity against human TK10 cells after 48 hrs by sulforhodamine B assay
# [20] = read-out: LC50 (the source's name)
smiles,measurement,setting,value
COc1cc(/C=C2\C(=O)Nc3ccccc32)cc(OC)c1O,GI50,cells [1],5.5 µM
same,TGI,cells [1],27.5 µM
same,CC50,cells [1]; read-out: LC50,> 100 µM
same,GI50,KM12,2.5 µM
same,TGI,KM12,11.5 µM
same,CC50,KM12; read-out: LC50,36.3 µM
same,GI50,SN12C,3.6 µM
same,TGI,SN12C,23.4 µM
same,CC50,SN12C; read-out: LC50,> 100 µM
same,GI50,EKVX,4.9 µM
same,TGI,EKVX,47.8 µM
same,CC50,EKVX; read-out: LC50,> 100 µM
same,GI50,cells [2],2.9 µM
same,TGI,cells [2],25.1 µM
same,CC50,cells [2]; read-out: LC50,> 100 µM
same,GI50,cells [3],3.8 µM
same,TGI,cells [3],93.3 µM
same,CC50,cells [3]; read-out: LC50,> 100 µM
same,GI50,cells [4],4.2 µM
same,TGI,cells [4],48.9 µM
same,CC50,cells [4]; read-out: LC50,> 100 µM
same,GI50,SR,1.5 µM
same,TGI,SR,16.9 µM
same,CC50,SR; [20],> 100 µM
same,GI50,SK-MEL-5,2.9 µM
same,TGI,SK-MEL-5,10.7 µM
same,CC50,SK-MEL-5; read-out: LC50,33.1 µM
same,GI50,cells [5],3.3 µM
same,TGI,cells [5],13.4 µM
same,CC50,cells [5]; read-out: LC50,37.1 µM
same,GI50,cells [6],5 µM
same,TGI,cells [6],29.5 µM
same,CC50,cells [6]; read-out: LC50,> 100 µM
same,GI50,cells [7],2 µM
same,TGI,cells [7],5 µM
same,CC50,cells [7]; read-out: LC50,22.3 µM
same,GI50,cells [8],1.8 µM
same,TGI,cells [8],18.6 µM
same,CC50,cells [8]; read-out: LC50,67.6 µM
same,GI50,cells [9],4 µM
same,TGI,cells [9],16.2 µM
same,CC50,cells [9]; read-out: LC50,44.6 µM
same,GI50,MDA-MB-435,0.6 µM
same,TGI,MDA-MB-435,2.2 µM
same,CC50,MDA-MB-435; read-out: LC50,6 µM
same,GI50,cells [10],4.9 µM
same,TGI,cells [10],31.6 µM
same,CC50,cells [10]; read-out: LC50,> 100 µM
same,GI50,cells [11],3.9 µM
same,TGI,cells [11],21.3 µM
same,CC50,cells [11]; read-out: LC50,> 100 µM
same,GI50,NCI-H460,3 µM
same,TGI,NCI-H460,11.7 µM
same,CC50,NCI-H460; read-out: LC50,53.7 µM
same,GI50,cells [12],5.4 µM
same,TGI,cells [12],46.7 µM
same,CC50,cells [12]; read-out: LC50,> 100 µM
same,GI50,A549,4.9 µM
same,TGI,A549,47.8 µM
same,CC50,A549; read-out: LC50,> 100 µM
same,GI50,cells [13],11.7 µM
same,TGI,cells [13],24.5 µM
same,CC50,cells [13]; read-out: LC50,51.3 µM
same,GI50,786-0,7.1 µM
same,TGI,786-0,27.5 µM
same,CC50,786-0; read-out: LC50,91.2 µM
same,GI50,[14],1.8 µM
same,TGI,[14],6.1 µM
same,CC50,[14]; [20],> 100 µM
same,GI50,M14,2.7 µM
same,TGI,M14,10.9 µM
same,CC50,M14; read-out: LC50,67.6 µM
same,GI50,cells [15],2.6 µM
same,TGI,cells [15],11.2 µM
same,CC50,cells [15]; read-out: LC50,35.4 µM
same,GI50,cells [16],2.6 µM
same,TGI,cells [16],19.9 µM
same,CC50,cells [16]; read-out: LC50,> 100 µM
same,GI50,cells [17],2.5 µM
same,TGI,cells [17],8.3 µM
same,CC50,cells [17]; read-out: LC50,30.9 µM
same,GI50,Malme-3M,2.9 µM
same,TGI,Malme-3M,21.8 µM
same,CC50,Malme-3M; read-out: LC50,> 100 µM
same,GI50,cells [18],4.3 µM
same,TGI,cells [18],28.8 µM
same,CC50,cells [18]; read-out: LC50,> 100 µM
same,GI50,CCRF-CEM,5.1 µM
same,TGI,CCRF-CEM,> 100 µM
same,CC50,CCRF-CEM; read-out: LC50,> 100 µM
same,GI50,T47D,3.5 µM
same,TGI,T47D,85.1 µM
same,CC50,T47D; read-out: LC50,> 100 µM
same,GI50,NCI-H522,1.7 µM
same,TGI,NCI-H522,5.1 µM
same,CC50,NCI-H522; read-out: LC50,22.9 µM
same,GI50,HT-29,9.1 µM
same,TGI,HT-29,30.9 µM
same,CC50,HT-29; read-out: LC50,> 100 µM
same,GI50,SK-MEL-28,5 µM
same,TGI,SK-MEL-28,22.9 µM
same,CC50,SK-MEL-28; read-out: LC50,83.2 µM
same,GI50,A498,2.1 µM
same,TGI,A498,15.8 µM
same,CC50,A498; read-out: LC50,> 100 µM
same,GI50,cells [19],7.1 µM
same,TGI,cells [19],37.1 µM
same,CC50,cells [19]; read-out: LC50,> 100 µM
